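Growth conditions: 96-well plates. Treatment: test compound, 48 hours, 5 concentrations. Analysis: linear interpolation between bracketing concentrations; unreached endpoints set to highest concentration. Abbreviation: GI50, concentration required for 50% inhibition of growth. TGI: total growth inhibition.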 Bounds are passed on as bounds.

Test systems include RXF 393 renal; SF-539 CNS; NCI/ADR-RES ovarian; SR leukemia; M14 melanoma; PC-3 prostate; MDA-MB-231 breast; K-562 leukemia; HCT-15 colon; HOP-62 NSCLC.
Assay in all cases: inhibition of tumour cell growth, NCI panel, 48 h

Turning to `Cc1ccc2nc3c(n2c1)C(=O)C(=O)c1ccccc1-3`, the GI50 in the test with RXF 393 renal was 227 nM; in the test on SF-539 CNS it was 164 nM; with NCI/ADR-RES ovarian, 348 nM; in the test with SR leukemia it was 264 nM; in the test on M14 melanoma, 183 nM; in the test with PC-3 prostate, 590 nM. Further, the GI50 in the test with MDA-MB-231 breast is 505 nM; in the test on K-562 leukemia it was 61.2 nM; in the test with HCT-15 colon, 170 nM; in the test with HOP-62 NSCLC, 353 nM. In addition, the TGI turned out to be 10200 nM in the test with RXF 393 renal; 326 nM with SF-539 CNS; 2510 nM with NCI/ADR-RES ovarian; 3330 nM in the test with SR leukemia; 340 nM in the test on M14 melanoma; 3810 nM in the test on PC-3 prostate. Besides, the TGI in the test with MDA-MB-231 breast was determined as 3070 nM; in the test with K-562 leukemia, 286 nM; in the test on HCT-15 colon, 416 nM; with HOP-62 NSCLC, 961 nM.

As to `CC[C@H](C)[C@H](NC(=O)NC(C)(C)C)C(=O)N(C)[C@H](C[C@@H](OC(C)=O)c1nc(C(=O)N[C@@H](Cc2ccccc2)C[C@H](C)C(=O)OC)cs1)C(C)C`, the GI50 is 430 nM in the test on RXF 393 renal; 628 nM with SF-539 CNS; 1790 nM with NCI/ADR-RES ovarian; 141 nM with SR leukemia; 476 nM in the test on M14 melanoma; 924 nM with PC-3 prostate. Moreover, the GI50 in the test with MDA-MB-231 breast is 726 nM; in the test on K-562 leukemia, 461 nM; in the test with HCT-15 colon, 686 nM; in the test with HOP-62 NSCLC, 846 nM. In addition, the TGI in the test on RXF 393 renal was over 20300 nM; with SF-539 CNS it was 1820 nM; with NCI/ADR-RES ovarian it was 24900 nM; in the test with SR leukemia, over 11400 nM; in the test with M14 melanoma it was 2080 nM; in the test with PC-3 prostate it was over 25000 nM. In addition, the TGI in the test with MDA-MB-231 breast was 2980 nM; in the test on K-562 leukemia it was over 25000 nM; in the test with HCT-15 colon, 6950 nM; in the test on HOP-62 NSCLC, over 25000 nM.

For the molecule `COc1cnc2c(c1)C(=O)c1c-2n(CCCNCCN2CCOCC2)c(=O)c2cc([N+](=O)[O-])ccc12`, the GI50 in the test with RXF 393 renal is 387 nM; in the test with SF-539 CNS, 311 nM; in the test on NCI/ADR-RES ovarian, 125 nM; with SR leukemia it was 15.1 nM; with M14 melanoma, 68.9 nM; with PC-3 prostate it was 568 nM. Also, the GI50 in the test with MDA-MB-231 breast was 630 nM; in the test with K-562 leukemia, 226 nM; with HCT-15 colon, 297 nM; in the test on HOP-62 NSCLC, 150 nM. Besides, the TGI in the test on RXF 393 renal was 1930 nM; in the test with SF-539 CNS, 1320 nM; in the test on NCI/ADR-RES ovarian, 1450 nM; in the test on SR leukemia it was 1020 nM; with M14 melanoma, 1520 nM; in the test with PC-3 prostate, 13000 nM. The TGI in the test with MDA-MB-231 breast came out at 2650 nM; in the test on K-562 leukemia it was 2590 nM; with HCT-15 colon it was 2580 nM; in the test on HOP-62 NSCLC, 1080 nM.

With `O=C1/C(=C/c2ccc(Cl)cc2)CN(C(=O)CCN2CCC(=NO)CC2)C/C1=C\c1ccc(Cl)cc1`, the GI50 in the test with RXF 393 renal was 1460 nM; with SF-539 CNS, 1210 nM; in the test on NCI/ADR-RES ovarian it was 930 nM; in the test on SR leukemia, 114 nM; in the test with M14 melanoma it was 754 nM; with PC-3 prostate, 481 nM. The GI50 in the test on MDA-MB-231 breast was 637 nM; with K-562 leukemia, 230 nM; in the test with HCT-15 colon, 383 nM; in the test with HOP-62 NSCLC, 894 nM. For the same molecule, the TGI in the test on RXF 393 renal worked out at 2870 nM; in the test on SF-539 CNS, 2550 nM; with NCI/ADR-RES ovarian, 3750 nM; with M14 melanoma, 2300 nM; in the test with PC-3 prostate, 1570 nM; in the test on MDA-MB-231 breast, 1890 nM. The TGI was 1380 nM in the test on HCT-15 colon and 2410 nM with HOP-62 NSCLC.

In the case of `O=C(c1ccco1)c1nc2cc(C(F)(F)F)ccc2[n+]([O-])c1C(F)(F)F`, the GI50 with RXF 393 renal is 61400 nM; in the test on SF-539 CNS, 81800 nM; with NCI/ADR-RES ovarian, 32400 nM; in the test on SR leukemia, 41400 nM; with M14 melanoma it was 43800 nM; with PC-3 prostate, 43300 nM. Also, the GI50 with MDA-MB-231 breast was 68800 nM; with K-562 leukemia, 48900 nM; in the test with HCT-15 colon, 56500 nM; in the test on HOP-62 NSCLC it was 71700 nM. Also, the TGI with RXF 393 renal, in the test on SF-539 CNS, in the test on NCI/ADR-RES ovarian, in the test with SR leukemia, with M14 melanoma and with PC-3 prostate was over 100000 nM each time. In addition, the TGI in the test on MDA-MB-231 breast, with K-562 leukemia, in the test on HCT-15 colon and in the test on HOP-62 NSCLC was over 100000 nM each time.

With `COc1cc2cnc(-c3ccccc3)cc2cc1OC`, the TGI in the test with RXF 393 renal was over 100000 nM; with SF-539 CNS it was over 100000 nM; in the test with NCI/ADR-RES ovarian, 73600 nM; in the test on SR leukemia, 45800 nM; in the test on M14 melanoma, over 100000 nM; with PC-3 prostate it was 77500 nM. Moreover, the TGI in the test on MDA-MB-231 breast is 48200 nM; with K-562 leukemia, 78300 nM; in the test on HCT-15 colon, 46500 nM; in the test with HOP-62 NSCLC, over 100000 nM.

As for `O=C(Cc1ccc(Nc2ccnc(C(F)(F)F)c2)cc1)Nc1cc(Cl)ccc1O`, the GI50 in the test on RXF 393 renal is 25000 nM; in the test with SF-539 CNS, 7180 nM; in the test on NCI/ADR-RES ovarian, 3460 nM; with SR leukemia, 2450 nM; with M14 melanoma, 12300 nM; in the test on PC-3 prostate, 2580 nM. Also, the GI50 in the test with MDA-MB-231 breast was 4920 nM; with K-562 leukemia it was 2960 nM; in the test on HCT-15 colon, 5660 nM; with HOP-62 NSCLC it was 12500 nM. The TGI with RXF 393 renal came to 52400 nM; in the test on SF-539 CNS, 22000 nM; in the test on NCI/ADR-RES ovarian, 24500 nM; in the test with SR leukemia it was 14900 nM; in the test on M14 melanoma it was 33600 nM; in the test with PC-3 prostate, 12400 nM. Further, the TGI in the test with MDA-MB-231 breast is 24200 nM; with K-562 leukemia, 12000 nM; with HCT-15 colon, 61000 nM; with HOP-62 NSCLC, 32500 nM.

Turning to `NC(=O)c1sc(-n2cnc3ccc(C(F)(F)F)cc32)cc1OCc1ccccc1Br`, the GI50 in the test with RXF 393 renal is 566 nM; in the test with SF-539 CNS it was 1370 nM; in the test with NCI/ADR-RES ovarian it was 764 nM; with SR leukemia, 907 nM; in the test on M14 melanoma, 1890 nM; in the test with PC-3 prostate, 2310 nM. Moreover, the GI50 is 1620 nM with MDA-MB-231 breast, 1060 nM in the test with K-562 leukemia, 1420 nM with HCT-15 colon and 916 nM in the test on HOP-62 NSCLC. The TGI with RXF 393 renal is 1940 nM; with SF-539 CNS it was over 17000 nM; with NCI/ADR-RES ovarian it was over 25000 nM; in the test with SR leukemia it was over 25000 nM; in the test with M14 melanoma, over 25000 nM; with PC-3 prostate, over 25000 nM. Moreover, the TGI in the test on MDA-MB-231 breast is 19300 nM; in the test on K-562 leukemia, over 25000 nM; in the test with HCT-15 colon, over 25000 nM; in the test with HOP-62 NSCLC, over 10500 nM.

The values are drawn from PubChem BioAssay (NCI).
